Experimental findings from publication PMC12317361, “Pharmacological Inhibition of c‐Jun N‐Terminal Kinase Activity Exacerbates Liver Damage in Schistosoma mansoni Infected Mice” (Liver International, 2025) are described below.

This assay has as its target SmJNK (S. mansoni c-Jun N-terminal kinase) (Schistosoma mansoni, UniProt A0A3Q0KT26). The assay can be described thus: cellular thermal shift assay (CETSA), isothermal dose-response fingerprint in SmJNK-expressing Sf21 cells. Format: cell-based.

Sequence of SmJNK (S. mansoni c-Jun N-terminal kinase) (A0A3Q0KT26 entry or part of it): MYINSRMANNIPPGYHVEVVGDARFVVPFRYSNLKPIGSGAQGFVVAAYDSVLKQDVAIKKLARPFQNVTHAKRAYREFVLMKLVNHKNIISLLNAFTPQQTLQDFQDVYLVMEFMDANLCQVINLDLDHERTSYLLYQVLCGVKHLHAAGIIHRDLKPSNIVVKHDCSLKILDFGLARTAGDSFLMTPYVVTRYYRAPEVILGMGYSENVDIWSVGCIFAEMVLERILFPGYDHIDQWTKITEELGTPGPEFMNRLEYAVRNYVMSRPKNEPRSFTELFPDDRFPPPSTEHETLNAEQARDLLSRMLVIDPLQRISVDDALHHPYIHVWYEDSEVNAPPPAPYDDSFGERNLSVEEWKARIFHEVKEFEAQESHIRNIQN

In the case of `Oc1c2ccccc2c2c3c(cccc13)N=N2` [SP600125], the Kd stood at 650 nM.

In general, Kd refers to the concentration at which binding is half-saturated.
